Assay results from ChEMBL document CHEMBL1136696, “Azalide 3,6-ketals: antibacterial activity and structure-activity relationships of aryl and hetero aryl substituted analogues” (Bioorg Med Chem Lett, 2003).
In brackets after ≈: the same amount, converted by molar mass.

Tests used:
Type in all cases: functional
Escherichia coli = assay: In vitro antibacterial activity against Escherichia coli 51A0150
Staphylococcus aureus = assay: In vitro antibacterial activity against Staphylococcus aureus 01A0758
Pasteurella multocida = assay: In vitro antibacterial activity against Pasteurella multocida 59A0067

| Compound | MIC (Escherichia coli) [µg/mL] | MIC (Staphylococcus aureus) [µg/mL] | MIC (Pasteurella multocida) [µg/mL] |
| --- | --- | --- | --- |
| CC[C@H]1OC(=O)[C@H](C)[C@H]2OC3(CCN(c4ccc(C(=O)OCc5ccccc5)c(C(F)(F)F)c4)CC3)O[C@](C)(C[C@@H](C)CN(C)[C@H](C)[C@@H](O)[C@]1(C)O)[C@H](O[C@@H]1O[C@H](C)CC(N(C)C)[C@H]1O)[C@H]2C (some centres undefined) | 3.13 (≈ 3.29 µM) | 0.78 (≈ 0.821 µM) | 0.39 (≈ 0.41 µM) |
| CC[C@H]1OC(=O)[C@H](C)[C@H]2OC3(CCN(c4ccc([N+](=O)[O-])cn4)CC3)O[C@](C)(C[C@@H](C)CN[C@H](C)[C@@H](O)[C@]1(C)O)[C@H](O[C@@H]1O[C@H](C)CC(N(C)C)[C@H]1O)[C@H]2C (some centres undefined) | 3.13 (≈ 4.01 µM) | 1.56 (≈ 2 µM) | 0.39 (≈ 0.5 µM) |
| CC[C@H]1OC(=O)[C@H](C)[C@H]2OC3(CCN(c4ccc(C(=O)OCc5ccccc5)cc4)CC3)O[C@](C)(C[C@@H](C)CN(C)[C@H](C)[C@@H](O)[C@]1(C)O)[C@H](O[C@@H]1O[C@H](C)CC(N(C)C)[C@H]1O)[C@H]2C (some centres undefined) | 3.13 (≈ 3.55 µM) | 3.13 (≈ 3.55 µM) | 0.39 (≈ 0.442 µM) |
| CC[C@H]1OC(=O)[C@H](C)[C@H]2OC3(CCN(c4ccc(C(F)(F)F)cn4)CC3)O[C@](C)(C[C@@H](C)CN[C@H](C)[C@@H](O)[C@]1(C)O)[C@H](O[C@@H]1O[C@H](C)CC(N(C)C)[C@H]1O)[C@H]2C (some centres undefined) | 12.5 (≈ 15.6 µM) | 1.56 (≈ 1.94 µM) | 0.78 (≈ 0.971 µM) |
| CC[C@H]1OC(=O)[C@H](C)C2OC3(CCNCC3)O[C@](C)(C[C@@H](C)CN(C)[C@H](C)[C@@H](O)[C@]1(C)O)[C@H](O[C@@H]1O[C@H](C)C[C@H](N(C)C)[C@H]1O)[C@H]2C | 0.39 (≈ 0.58 µM) | 6.25 (≈ 9.3 µM) | < 0.05 |
| CC[C@H]1OC(=O)[C@H](C)[C@H]2OC3(CCN(c4ccc(N)cc4)CC3)O[C@](C)(C[C@@H](C)CN(C)[C@H](C)[C@@H](O)[C@]1(C)O)[C@H](O[C@@H]1O[C@H](C)CC(N(C)C)[C@H]1O)[C@H]2C (some centres undefined) | 12.5 (≈ 16.4 µM) | 6.35 (≈ 8.32 µM) | 1.56 (≈ 2.04 µM) |
| CC[C@H]1OC(=O)[C@H](C)[C@H]2OC3(CCN(c4ccc(S(=O)(=O)c5ccc(F)cc5)cc4)CC3)O[C@](C)(C[C@@H](C)CN(C)[C@H](C)[C@@H](O)[C@]1(C)O)[C@H](O[C@@H]1O[C@H](C)CC(N(C)C)[C@H]1O)[C@H]2C (some centres undefined) | > 50 | 3.13 (≈ 3.45 µM) | 1.56 (≈ 1.72 µM) |
| CCOC(=O)c1ccc(N2CCC3(CC2)O[C@H]2[C@H](C)[C@@H](O[C@@H]4O[C@H](C)CC(N(C)C)[C@H]4O)[C@@](C)(C[C@@H](C)CN[C@H](C)[C@@H](O)[C@](C)(O)[C@@H](CC)OC(=O)[C@@H]2C)O3)nc1 (some centres undefined) | 50 (≈ 62 µM) | 6.25 (≈ 7.74 µM) | 3.13 (≈ 3.88 µM) |
| CC[C@H]1OC(=O)[C@H](C)[C@H]2OC3(CCN(c4ncccn4)CC3)O[C@](C)(C[C@@H](C)CN(C)[C@H](C)[C@@H](O)[C@]1(C)O)[C@H](O[C@@H]1O[C@H](C)CC(N(C)C)[C@H]1O)[C@H]2C (some centres undefined) | 1.56 (≈ 2.08 µM) | 1.56 (≈ 2.08 µM) | 0.1 (≈ 0.133 µM) |
| CC[C@H]1OC(=O)[C@H](C)[C@H]2OC3(CCN(c4cc(C)c([N+](=O)[O-])cn4)CC3)O[C@](C)(C[C@@H](C)CN[C@H](C)[C@@H](O)[C@]1(C)O)[C@H](O[C@@H]1O[C@H](C)CC(N(C)C)[C@H]1O)[C@H]2C (some centres undefined) | 6.25 (≈ 7.87 µM) | 0.78 (≈ 0.982 µM) | 1.56 (≈ 1.96 µM) |
| CC[C@H]1OC(=O)[C@H](C)[C@H]2OC3(CCN(c4ccc(C#N)cc4)CC3)O[C@](C)(C[C@@H](C)CN(C)[C@H](C)[C@@H](O)[C@]1(C)O)[C@H](O[C@@H]1O[C@H](C)CC(N(C)C)[C@H]1O)[C@H]2C (some centres undefined) | 25 (≈ 32.3 µM) | 3.13 (≈ 4.05 µM) | 0.39 (≈ 0.505 µM) |
| CC[C@H]1OC(=O)[C@H](C)[C@H]2OC3(CCN(c4ccc(C(=O)OCc5ccccc5)cc4F)CC3)O[C@](C)(C[C@@H](C)CN[C@H](C)[C@@H](O)[C@]1(C)O)[C@H](O[C@@H]1O[C@H](C)CC(N(C)C)[C@H]1O)[C@H]2C (some centres undefined) | > 50 | 0.39 (≈ 0.44 µM) | 3.13 (≈ 3.53 µM) |
| CC[C@H]1OC(=O)[C@H](C)[C@H]2OC3(CCN(c4nc5ccccc5o4)CC3)O[C@](C)(C[C@@H](C)CN(C)[C@H](C)[C@@H](O)[C@]1(C)O)[C@H](O[C@@H]1O[C@H](C)CC(N(C)C)[C@H]1O)[C@H]2C (some centres undefined) | 6.25 (≈ 7.92 µM) | 3.13 (≈ 3.97 µM) | 0.78 (≈ 0.989 µM) |
| CC[C@H]1OC(=O)[C@H](C)[C@H]2OC3(CCN(c4ccccc4[N+](=O)[O-])CC3)O[C@](C)(C[C@@H](C)CN(C)[C@H](C)[C@@H](O)[C@]1(C)O)[C@H](O[C@@H]1O[C@H](C)CC(N(C)C)[C@H]1O)[C@H]2C (some centres undefined) | 3.13 (≈ 3.95 µM) | 1.56 (≈ 1.97 µM) | 0.39 (≈ 0.492 µM) |
| CC[C@H]1OC(=O)[C@H](C)[C@H]2OC3(CCN(c4ncc(C(=O)OCc5ccccc5)c(C(F)(F)F)n4)CC3)O[C@](C)(C[C@@H](C)CN(C)[C@H](C)[C@@H](O)[C@]1(C)O)[C@H](O[C@@H]1O[C@H](C)CC(N(C)C)[C@H]1O)[C@H]2C (some centres undefined) | > 50 | 1.17 (≈ 1.23 µM) | > 50 |
| CC[C@H]1OC(=O)[C@H](C)[C@H]2OC3(CCN(c4nc(Cl)nc(-c5ccccc5)n4)CC3)O[C@](C)(C[C@@H](C)CN(C)[C@H](C)[C@@H](O)[C@]1(C)O)[C@H](O[C@@H]1O[C@H](C)CC(N(C)C)[C@H]1O)[C@H]2C (some centres undefined) | > 50 | 1.56 (≈ 1.81 µM) | > 50 |
| CC[C@H]1OC(=O)[C@H](C)[C@H]2OC3(CCN(c4ncccc4[N+](=O)[O-])CC3)O[C@](C)(C[C@@H](C)CN[C@H](C)[C@@H](O)[C@]1(C)O)[C@H](O[C@@H]1O[C@H](C)CC(N(C)C)[C@H]1O)[C@H]2C (some centres undefined) | 6.25 (≈ 8.01 µM) | 0.78 (≈ 1 µM) | 0.2 (≈ 0.256 µM) |
| CC[C@H]1OC(=O)[C@H](C)[C@H]2OC3(CCN(c4ccc(NC(=O)c5ccccc5)cc4)CC3)O[C@](C)(C[C@@H](C)CN(C)[C@H](C)[C@@H](O)[C@]1(C)O)[C@H](O[C@@H]1O[C@H](C)CC(N(C)C)[C@H]1O)[C@H]2C (some centres undefined) | 50 (≈ 57.7 µM) | 12.5 (≈ 14.4 µM) | 1.56 (≈ 1.8 µM) |
| CC[C@H]1OC(=O)[C@H](C)[C@H]2OC3(CCN(c4nccs4)CC3)O[C@](C)(C[C@@H](C)CN(C)[C@H](C)[C@@H](O)[C@]1(C)O)[C@H](O[C@@H]1O[C@H](C)CC(N(C)C)[C@H]1O)[C@H]2C (some centres undefined) | 3.13 (≈ 4.15 µM) | 3.13 (≈ 4.15 µM) | 0.39 (≈ 0.517 µM) |
| CC[C@H]1OC(=O)[C@H](C)[C@H]2OC3(CCN(c4ccc([N+](=O)[O-])cn4)CC3)O[C@](C)(C[C@@H](C)CN(C)[C@H](C)[C@@H](O)[C@]1(C)O)[C@H](O[C@@H]1O[C@H](C)CC(N(C)C)[C@H]1O)[C@H]2C (some centres undefined) | 6.25 (≈ 7.87 µM) | 3.13 (≈ 3.94 µM) | 0.39 (≈ 0.491 µM) |
| CC[C@H]1OC(=O)[C@H](C)[C@H]2OC3(CCN(c4ccc(C(N)=O)cn4)CC3)O[C@](C)(C[C@@H](C)CN[C@H](C)[C@@H](O)[C@]1(C)O)[C@H](O[C@@H]1O[C@H](C)CC(N(C)C)[C@H]1O)[C@H]2C (some centres undefined) | 6.25 (≈ 8.03 µM) | 1.56 (≈ 2.01 µM) | 0.2 (≈ 0.257 µM) |
| CC[C@H]1OC(=O)[C@H](C)[C@H]2OC3(CCN(c4nccc(C(F)(F)F)n4)CC3)O[C@](C)(C[C@@H](C)CN(C)[C@H](C)[C@@H](O)[C@]1(C)O)[C@H](O[C@@H]1O[C@H](C)CC(N(C)C)[C@H]1O)[C@H]2C (some centres undefined) | 12.5 (≈ 15.3 µM) | 6.25 (≈ 7.64 µM) | 1.56 (≈ 1.91 µM) |
| CC[C@H]1OC(=O)[C@H](C)[C@H]2OC3(CCN(c4cc(CO)cc(Cl)n4)CC3)O[C@](C)(C[C@@H](C)CN[C@H](C)[C@@H](O)[C@]1(C)O)[C@H](O[C@@H]1O[C@H](C)CC(N(C)C)[C@H]1O)[C@H]2C (some centres undefined) | 0.78 (≈ 0.976 µM) | 1.56 (≈ 1.95 µM) | 0.2 (≈ 0.25 µM) |
| CC[C@H]1OC(=O)[C@H](C)[C@H]2OC3(CCN(c4cncc(Cl)n4)CC3)O[C@](C)(C[C@@H](C)CN(C)[C@H](C)[C@@H](O)[C@]1(C)O)[C@H](O[C@@H]1O[C@H](C)CC(N(C)C)[C@H]1O)[C@H]2C (some centres undefined) | 6.25 (≈ 7.97 µM) | 1.56 (≈ 1.99 µM) | 0.39 (≈ 0.497 µM) |
| CC[C@H]1OC(=O)[C@H](C)[C@H]2OC3(CCN(c4ccc(C(=O)O)c(C(F)(F)F)c4)CC3)O[C@](C)(C[C@@H](C)CN(C)[C@H](C)[C@@H](O)[C@]1(C)O)[C@H](O[C@@H]1O[C@H](C)CC(N(C)C)[C@H]1O)[C@H]2C (some centres undefined) | 12.5 (≈ 14.5 µM) | 25 (≈ 29.1 µM) | 3.13 (≈ 3.64 µM) |
| CC[C@H]1OC(=O)[C@H](C)[C@H]2OC3(CCN(c4cc(OC)nc(OC)n4)CC3)O[C@](C)(C[C@@H](C)CN(C)[C@H](C)[C@@H](O)[C@]1(C)O)[C@H](O[C@@H]1O[C@H](C)CC(N(C)C)[C@H]1O)[C@H]2C (some centres undefined) | 6.25 (≈ 7.72 µM) | 1.56 (≈ 1.93 µM) | 0.39 (≈ 0.481 µM) |
| CC[C@H]1OC(=O)[C@H](C)[C@H]2OC3(CCN(c4nccc(C(F)(F)F)n4)CC3)O[C@](C)(C[C@@H](C)CN[C@H](C)[C@@H](O)[C@]1(C)O)[C@H](O[C@@H]1O[C@H](C)CC(N(C)C)[C@H]1O)[C@H]2C (some centres undefined) | 3.13 (≈ 3.89 µM) | 1.56 (≈ 1.94 µM) | 0.78 (≈ 0.97 µM) |
| CC[C@H]1OC(=O)[C@H](C)[C@H]2OC3(CCN(c4ccc(C)nn4)CC3)O[C@](C)(C[C@@H](C)CN(C)[C@H](C)[C@@H](O)[C@]1(C)O)[C@H](O[C@@H]1O[C@H](C)CC(N(C)C)[C@H]1O)[C@H]2C (some centres undefined) | 3.13 (≈ 4.1 µM) | 6.25 (≈ 8.18 µM) | 0.2 (≈ 0.262 µM) |
